pIC50: −log10 of the molar value. Where two headings read alike, the source gives them in different places.
How the values were obtained:
[1] = test system: DLD-1 human colon cancer cells; test: in vitro cell growth inhibition assay using DLD-1 cells; format: cell-based
[2] = test system: U937 human histiocytic lymphoma cells; test: U937 Mitotic Block Reversibility Assay; format: cell-based
[3] = test system: LOX human melanoma tumor xenograft; test: LOX melanoma xenograft growth inhibition assay; format: in vivo, mouse; settings: FIG. 3
Method: FIG. 3 is a graph showing the average tumor volume in microliters as a function of time (days) in a LOX melanoma xenograft growth inhibition assay. […] Paclitaxel and a vehicle control were used.
Many of the individually disclosed drugs were tested for in vitro and in vivo activity (see Table 1, below). Screening methods included a standard in vitro cell growth inhibition assay using DLD-1 human colon cancer cells (ATCC accession number CCL 221) in a 96-well microtiter plate format (Finlay, G. J. et al Analytical Biochemistry 139:272-277, 1984), a U937 (ATCC accession number CRL 1593) mitotic block reversibility assay (described below), and in some cases, a LOX human melanoma tumor xenograft in vivo growth inhibition assay (see Table 1). Chemical stability to esterase degradation was also examined.

[4] = Homo sapiens, DLD-1, read-out: DLD-1 mean IC50

SMILES	Complete Mitotic Block 0 hour [2]	Complete Mitotic Block 10 hour [2]	Reversibility Ratio [2]	pIC50 ([1]; read-out: DLD-1 mean IC50)	further results
C=C1CC2CCC34CC5OC6C(O3)C3OC(CCC3O[C@H]6C5O4)CC(=O)CC3C(CC4OC(CCC1O2)CC(C)C4=C)OC(CC(O)CN)C3OC (some centres unmarked) [Compound B1939]	12 nM	12 nM	1.0		pIC50 [1, 4]: 7.71; minimum concentration required for complete mitotic block at 0 hour [2]: 10 nM; minimum concentration required for complete mitotic block at 10 hour [2]: 10 nM; reversibility ratio [2]: 1; viability of cells at 5 days [2]: drops to very low levels; antitumor activity (average tumor volume over time) [3]: antitumor activity
C=C1CC2CCC34CC5OC6C(OC7CCC(CC(=O)CC8C(CC9OC(CCC1O2)CC(C)C9=C)OC(CC(O)CNC(C)(C)C)C8OC)OC7C6O3)C5O4 (centres unmarked) [Compound B2339]	3 nM	3 nM	1.0	8.37	
C=C1CC2CCC34CC5OC6C(OC7CCC(CC(=O)CC8C(CC9OC(CCC1O2)CC(C)C9=C)OC(CC(O)CN1CCCCCC1)C8OC)OC7C6O3)C5O4 (centres unmarked) [ER803843]	1 nM	10 nM	10.0	9.31	
C=C1CC2CCC34CC5OC6C(OC7CCC(CC(=O)C[C@H]8C(CC9OC(CCC1O2)CC(C)C9=C)OC(CC(O)CO)C8OC)OC7C6O3)C5O4 (some centres unmarked) [Compound B1793]			14.7		pIC50 ([1]; in vitro cell growth inhibition, DLD-1 human colon cancer cells, read-out: DLD-1 mean IC50): 9.03; Complete Mitotic Block 10 hour ([2]; after washout, 12 h pretreatment, U937 cells): 44 nM; Complete Mitotic Block 0 hour ([2]; before washout, 12 h pretreatment, U937 cells): 3 nM
C=C1CC2CCC34CC5OC6C(OC7CCC(CC(=O)CC8C(CC9OC(CCC1O2)CC(C)C9=C)OC(CC(O)CNCC)C8OC)OC7C6O3)C5O4 (centres unmarked) [ER803869]	3 nM	3 nM	1.0	8.38	
C=C1CC2CCC34CC5OC6C(OC7CCC(CC(=O)CC8C(CC9OC(CCC1O2)CC(C)C9=C)OC(CC(O)CN(C)C)C8OC)OC7C6O3)C5O4 (centres unmarked) [Compound B2320]	1 nM	10 nM	10.0	8.92	
C=C1CC2CCC34CC5OC6C(OC7CCC(CC(=O)CC8C(CC9OC(CCC1O2)CC(C)C9=C)OC(CC(O)CNC(C)C)C8OC)OC7C6O3)C5O4 (centres unmarked) [Compound B2330]	7 nM	7 nM	1.0	8.36	
C=C1CC2CCC34CC5OC6C(OC7CCC(CC(=O)CC8C(CC9OC(CCC1O2)CC(C)C9=C)OC(CC(O)Cn1ccnc1)C8OC)OC7C6O3)C5O4 (centres unmarked) [ER803870]	3 nM	30 nM	10.0	8.90	
C=C1CC2CCC34CC5OC6C(OC7CCC(CC(=O)CC8C(CC9OC(CCC1O2)CC(C)C9=C)OC(CC(O)CN1CCCCC1)C8OC)OC7C6O3)C5O4 (centres unmarked) [ER803834]	1 nM	10 nM	10.0	9.33	
C=C1CC2CCC34CC5OC6C(OC7CCC(CC(=O)CC8C(CC9OC(CCC1O2)CC(C)C9=C)OC(CC(O)CNCCc1ccccc1)C8OC)OC7C6O3)C5O4 (centres unmarked) [ER803846]	1 nM	10 nM	10.0	8.94	
C=C1CC2CCC34CC5OC6C(OC7CCC(CC(=O)CC8C(CC9OC(CCC1O2)CC(C)C9=C)OC(CC(=O)CO)C8OC)OC7C6O3)C5O4 (centres unmarked) [Compound B1934]	3 nM	30 nM	10.0		pIC50 [1, 4]: 8.98
C=C1CC2CCC34CC5OC6C(OC7CCC(CC(=O)CC8C(CC9OC(CCC1O2)CC(C)C9=C)OC(CC(O)CN1CCC[C@H]1CO)C8OC)OC7C6O3)C5O4 (some centres unmarked) [ER803851]	3 nM	3 nM	1.0	8.48	

Reference: US6365759B1, “Intermediate compounds for preparing macrocylcic analogs” (Eisai Co., Ltd., priority 1998, dated 2002)
